Assay results taken from US6440459B1, “Paroxetine maleate polymorph and pharmaceutical compositions containing it” (Medichem, S.A., priority 1998, dated 2002).

Assay: Accelerated stability tests (storage at 40° C. and 75% Relative Humidity, HPLC analysis)
Format: physicochemical
Conditions: for Degradation in accelerated stability tests: high temperature and humidity conditions, periods of up to six months (summary statement); for Stability (degradation by HPLC) at the end of one month of storage / Stability (degradation by HPLC) at the end of six months of storage: solid in two-ply polythene bags, 40° C., 75% Relative Humidity, HPLC vs time of packaging
Procedure: Accelerated Stability Tests Samples of paroxetine maleate Form A and Form B were packaged in two-ply polythene bags and stored at 40° C. and 75% Relative Humidity. The samples were analyzed at the time of packaging by HPLC and were analyzed with the same technique at the end of one month and six months of storage.

Degradation in accelerated stability tests	Stability (degradation by HPLC) at the end of one month of storage	Stability (degradation by HPLC) at the end of six months of storage	Structure (SMILES)
notable degradation	clear signs of degradation	high degree of degradation	Fc1ccc([C@@H]2CCNC[C@H]2COc2ccc3c(c2)OCO3)cc1.O=C(O)/C=C\C(=O)O [Form A, (3S-trans)-3-[(1,3-benzodioxol-5-yloxy)methyl]-4-(4-fluorophenyl)piperidine acid maleate]
absence of significant degradation	substantially unaltered	substantially unaltered	Fc1ccc([C@@H]2CCNC[C@H]2COc2ccc3c(c2)OCO3)cc1.O=C(O)/C=C\C(=O)O [Form B, (3S-trans)-3-[(1,3-benzodioxol-5-yloxy)methyl]-4-(4-fluorophenyl)piperidine acid maleate]
